Experimental data published in publication doi:10.1101/2021.06.16.448769v1 (bioRxiv, 2021).
Like-named read-outs stand apart in the source and are kept apart here. Bridge positions count the residues as written; N and C are the ends. Square brackets hold non-standard residues; d marks the D form. Ends that are not written are not given here. Peptide text beside a SMILES is read from it. * marks the point of attachment. Cam = NC(=O)C*

Tests used:
human C5 = human C5 (Homo sapiens, UniProt P01031); experiment: SPR multi-cycle kinetics, binding to human C5; conditions: for fold change in KD relative to parent: relative to the unmodified parent knob domain, Figure 5H
[1] = test system: C5 activation (C5b-6), alternative pathway; experiment: Alternative pathway; format: biochemical
[2] = KD, peptide after reduction and capping of cysteines with iodoacetamide (IAM)
[3] = KD, reduced and IAM-capped knob domains, S4
[4] = reduced and IAM-capped knob domains, S4

human C5, sequence (P01031 19-673 limits assumed): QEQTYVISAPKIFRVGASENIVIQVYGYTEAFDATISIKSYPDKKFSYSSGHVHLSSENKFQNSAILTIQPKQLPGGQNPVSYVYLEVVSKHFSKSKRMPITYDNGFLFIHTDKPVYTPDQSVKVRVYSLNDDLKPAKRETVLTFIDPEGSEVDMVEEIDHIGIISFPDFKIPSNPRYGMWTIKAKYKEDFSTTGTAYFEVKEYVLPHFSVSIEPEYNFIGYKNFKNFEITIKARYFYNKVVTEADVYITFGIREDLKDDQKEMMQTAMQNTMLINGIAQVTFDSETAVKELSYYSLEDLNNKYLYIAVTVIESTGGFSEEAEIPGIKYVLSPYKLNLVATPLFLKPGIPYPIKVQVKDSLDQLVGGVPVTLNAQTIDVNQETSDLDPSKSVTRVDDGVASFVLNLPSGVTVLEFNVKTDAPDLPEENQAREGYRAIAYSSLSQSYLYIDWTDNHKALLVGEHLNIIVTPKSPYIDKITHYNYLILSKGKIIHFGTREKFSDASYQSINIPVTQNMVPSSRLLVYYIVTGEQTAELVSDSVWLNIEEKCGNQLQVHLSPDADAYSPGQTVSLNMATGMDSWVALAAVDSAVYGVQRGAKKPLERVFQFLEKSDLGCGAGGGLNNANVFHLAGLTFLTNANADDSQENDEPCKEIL
human C5, sequence (P01031 678-1676 limits assumed): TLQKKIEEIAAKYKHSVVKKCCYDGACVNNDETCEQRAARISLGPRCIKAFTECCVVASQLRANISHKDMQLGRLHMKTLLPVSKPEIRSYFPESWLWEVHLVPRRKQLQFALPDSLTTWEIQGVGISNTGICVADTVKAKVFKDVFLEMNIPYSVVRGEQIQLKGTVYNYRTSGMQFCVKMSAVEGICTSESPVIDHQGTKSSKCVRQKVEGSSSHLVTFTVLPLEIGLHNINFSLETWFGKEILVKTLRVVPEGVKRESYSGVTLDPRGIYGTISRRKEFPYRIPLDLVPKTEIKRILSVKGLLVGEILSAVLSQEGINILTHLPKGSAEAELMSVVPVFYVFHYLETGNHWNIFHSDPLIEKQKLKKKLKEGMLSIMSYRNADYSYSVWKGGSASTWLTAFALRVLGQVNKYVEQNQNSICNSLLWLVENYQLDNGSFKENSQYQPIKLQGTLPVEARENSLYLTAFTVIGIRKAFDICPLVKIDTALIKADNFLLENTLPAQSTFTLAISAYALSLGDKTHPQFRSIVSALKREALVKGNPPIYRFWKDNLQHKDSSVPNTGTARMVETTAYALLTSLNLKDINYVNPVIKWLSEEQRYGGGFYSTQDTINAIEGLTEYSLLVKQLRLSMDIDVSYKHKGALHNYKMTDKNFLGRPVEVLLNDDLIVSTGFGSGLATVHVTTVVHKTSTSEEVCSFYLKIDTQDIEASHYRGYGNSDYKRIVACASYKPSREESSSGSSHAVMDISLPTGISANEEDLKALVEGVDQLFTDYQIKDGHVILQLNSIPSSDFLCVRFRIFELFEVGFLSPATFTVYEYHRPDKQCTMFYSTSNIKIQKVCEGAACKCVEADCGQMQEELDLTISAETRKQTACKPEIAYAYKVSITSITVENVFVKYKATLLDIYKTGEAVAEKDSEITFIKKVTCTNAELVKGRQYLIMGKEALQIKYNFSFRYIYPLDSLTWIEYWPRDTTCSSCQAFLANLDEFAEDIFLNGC

**Q.** Which “fold change in KD relative to parent” value (human C5) does the source give for `CC[C@H](C)[C@@H]1NC(=O)[C@H](CC(N)=O)NC(=O)[C@H](C(C)C)NC(=O)CNC(=O)[C@@H]2CSSC[C@@H](C(=O)NCC(=O)N[C@@H](Cc3c[nH]cn3)C(=O)N[C@@H](Cc3ccccc3)C(=O)N[C@@H](CC(C)C)C(=O)N[C@@H](CC(N)=O)C(=O)N[C@@H](CO)C(=O)NCC(=O)N3CCC[C@H]3C(=O)N[C@@H](CC(N)=O)C(=O)N[C@H](C(=O)N[C@@H](CO)C(=O)N3CCC[C@H]3C(=O)N[C@@H](Cc3ccc(O)cc3)C(=O)N[C@H](C(=O)N[C@@H](CO)C(=O)N[C@H](C(=O)O)[C@@H](C)O)C(C)C)[C@@H](C)CC)NC(=O)CNC(=O)[C@H](Cc3c[nH]c4ccccc34)NC(=O)[C@H](CCCNC(=N)N)NC(=O)CNC(=O)[C@H](CSSC[C@H](NC(=O)[C@@H](N)[C@@H](C)O)C(=O)N3CCC[C@H]3C(=O)N[C@@H](CCC(=O)O)C(=O)NCC(=O)N[C@@H](Cc3c[nH]c4ccccc34)C(=O)N[C@@H](CO)C(=O)N[C@@H](CCC(=O)O)C(=O)N2)NC(=O)[C@H](CCC(=O)O)NC(=O)[C@H](Cc2ccc(O)cc2)NC(=O)CNC(=O)[C@H](Cc2ccc(O)cc2)NC1=O` [K92chemFE A12N] (H-TCPEGWSECGVNIYGYECGRWGCGHFLNSGPNISPYVST-OH; disulfide 2-18, 9-23; N-terminus and C-terminus assumed) here?
**A.** 4.6

**Q.** For `CSCC[C@@H]1NC(=O)[C@@H]2CCCN2C(=O)[C@@H]2CSSC[C@H](NC(=O)[C@H](CCCNC(=N)N)NC(=O)CNC(=O)[C@H](C(C)C)NC1=O)C(=O)N[C@@H](CC(C)C)C(=O)N[C@@H](C)C(=O)N1CCC[C@H]1C(=O)N[C@@H](CCCNC(=N)N)C(=O)N[C@@H](CC(N)=O)C(=O)N[C@@H]([C@@H](C)O)C(=O)N[C@@H](CO)C(=O)N[C@H]1CSSC[C@H](NC(=O)[C@H](Cc3ccccc3)NC(=O)[C@H](CC(=O)O)NC(=O)[C@H](CC(=O)O)NC(=O)[C@H](Cc3c[nH]c4ccccc34)NC(=O)[C@H](CO)NC(=O)[C@H](CCCNC(=N)N)NC(=O)[C@H](Cc3ccc(O)cc3)NC(=O)[C@H](CO)NC(=O)[C@H](Cc3ccccc3)NC(=O)CNC(=O)[C@H](CC(=O)O)NC(=O)[C@@H]3CCCN3C1=O)C(=O)N2` [K149chemFE^cyclic] (cyclo(APRNTSCPDGFSYRSWDDFCCPMVGRCL); disulfide 7-20, 21-27 (inferred); ring closure inferred), which “fold change in KD relative to parent” value (human C5) is on record?
**A.** 0.2

**Q.** For `CC[C@H](C)[C@@H]1NC(=O)[C@H](C)NC(=O)[C@H](C(C)C)NC(=O)CNC(=O)[C@@H]2CSSC[C@@H]3NC(=O)CNC(=O)[C@H](Cc4c[nH]c5ccccc45)NC(=O)[C@H](CCCNC(=N)N)NC(=O)CNC(=O)[C@H](CSSC[C@H](NC(=O)[C@H]([C@@H](C)O)NC(=O)[C@H](Cc4ccc(O)cc4)NC(=O)[C@@H]4CCCN4C(=O)[C@H](CO)NC(=O)[C@H]([C@@H](C)CC)NC(=O)[C@H](CC(N)=O)NC(=O)[C@@H]4CCCN4C(=O)CNC(=O)[C@H](CO)NC(=O)[C@H](CC(N)=O)NC(=O)[C@H](CC(C)C)NC(=O)[C@H](Cc4ccccc4)NC(=O)[C@H](Cc4c[nH]cn4)NC(=O)CNC3=O)C(=O)N3CCC[C@H]3C(=O)N[C@@H](CCC(=O)O)C(=O)NCC(=O)N[C@@H](Cc3c[nH]c4ccccc34)C(=O)N[C@@H](CO)C(=O)N[C@@H](CCC(=O)O)C(=O)N2)NC(=O)[C@H](CCC(=O)O)NC(=O)[C@H](Cc2ccc(O)cc2)NC(=O)CNC(=O)[C@H](Cc2ccc(O)cc2)NC1=O` [K92chemFE^cyclic] (cyclo(AIYGYECGRWGCGHFLNSGPNISPYTCPEGWSECGV); disulfide 7-27, 12-34), which “fold change in KD relative to parent” value (human C5) is on record?
**A.** 39.7

**Q.** Which Kd (human C5; [2]) does the source give for “GC(Cam)PPGYKSGVDC(Cam)SPGSEC(Cam)KWGC(Cam)YAVDGRRYGGYGADSGVGS-OH [K57chemFE reduced and capped]” here?
**A.** 76 nM

**Q.** And the Kd (human C5; [3])?
**A.** 75.6 nM

**Q.** And the koff (human C5; [4])?
**A.** 0.000358 s⁻¹

**Q.** What about the kon (human C5; [4]) of the same molecule?
**A.** 4740 M⁻¹ s⁻¹

**Q.** Which “effect in AP ELISA (in words)” value [1] does the source give for `CC[C@H](C)[C@@H]1NC(=O)[C@H](CCCCNC(C)=O)NC(=O)[C@H](C(C)C)NC(=O)CNC(=O)[C@@H]2CSSC[C@@H](C(=O)NCC(=O)N[C@@H](Cc3c[nH]cn3)C(=O)N[C@@H](Cc3ccccc3)C(=O)N[C@@H](CC(C)C)C(=O)N[C@@H](CC(N)=O)C(=O)N[C@@H](CO)C(=O)NCC(=O)N3CCC[C@H]3C(=O)N[C@@H](CC(N)=O)C(=O)N[C@H](C(=O)N[C@@H](CO)C(=O)N3CCC[C@H]3C(=O)N[C@@H](Cc3ccc(O)cc3)C(=O)N[C@H](C(=O)N[C@@H](CO)C(=O)N[C@H](C(=O)O)[C@@H](C)O)C(C)C)[C@@H](C)CC)NC(=O)CNC(=O)[C@H](Cc3c[nH]c4ccccc34)NC(=O)[C@H](CCCNC(=N)N)NC(=O)CNC(=O)[C@H](CSSC[C@H](NC(=O)[C@@H](N)[C@@H](C)O)C(=O)N3CCC[C@H]3C(=O)N[C@@H](CCC(=O)O)C(=O)NCC(=O)N[C@@H](Cc3c[nH]c4ccccc34)C(=O)N[C@@H](CO)C(=O)N[C@@H](CCC(=O)O)C(=O)N2)NC(=O)[C@H](CCC(=O)O)NC(=O)[C@H](Cc2ccc(O)cc2)NC(=O)CNC(=O)[C@H](Cc2ccc(O)cc2)NC1=O` [K92chemFE A12K(Ac)] (H-TCPEGWSECGVK(Ac)IYGYECGRWGCGHFLNSGPNISPYVST-OH; disulfide 2-18, 9-23; N-terminus and C-terminus assumed) here?
**A.** two-fold increase in efficacy

**Q.** What about the “fold change in KD relative to parent” value (human C5) of the same molecule?
**A.** 130.2

**Q.** How did the “fold change in KD relative to parent” value (human C5) turn out when “cyclo(ADSGVGSTGCPPGYKSGVDCSPGSECKWGCYAVDGRRYGGYG) (disulfide 10-26, 20-30 (inferred); ring closure inferred) [K57chemFE^cyclic]” was run?
**A.** 0.8

**Q.** How did the Kd (human C5; read-out: mean KD, SPR multi-cycle kinetics, mean of n=3) turn out when `CSCC[C@@H]1NC(=O)[C@@H]2CCCN2C(=O)[C@@H](NC(=O)[C@@H]2CSSC[C@H](NC(=O)[C@@H](N)CO)C(=O)N3CCC[C@H]3C(=O)N[C@@H](CC(=O)O)C(=O)NCC(=O)N[C@@H](Cc3ccccc3)C(=O)N[C@@H](CO)C(=O)N[C@@H](Cc3ccc(O)cc3)C(=O)N[C@@H](CCCNC(=N)N)C(=O)N[C@@H](CO)C(=O)N[C@@H](Cc3c[nH]c4ccccc34)C(=O)N[C@@H](CC(=O)O)C(=O)N[C@@H](CC(=O)O)C(=O)N[C@@H](Cc3ccccc3)C(=O)N2)CSSC[C@@H](C(=O)N[C@@H](CC(C)C)C(=O)N[C@@H](C)C(=O)N2CCC[C@H]2C(=O)N[C@@H](CCCNC(=N)N)C(=O)N[C@@H](CC(N)=O)C(=O)O)NC(=O)[C@H](CCCNC(=N)N)NC(=O)CNC(=O)[C@H](C(C)C)NC1=O` [K149chemSD-A] (H-SCPDGFSYRSWDDFCCPMVGRCLAPRN-OH; disulfide 2-15, 16-22; N-terminus assumed) was run?
**A.** 7.3 nM

**Q.** Which Kd (human C5; [2]) does the source give for `CC[C@H](C)[C@H](NC(=O)[C@H](C)NC(=O)[C@@H](NC(=O)CNC(=O)[C@H](CSCC(N)=O)NC(=O)[C@H](CCC(=O)O)NC(=O)[C@H](CO)NC(=O)[C@H](Cc1c[nH]c2ccccc12)NC(=O)CNC(=O)[C@H](CCC(=O)O)NC(=O)[C@@H]1CCCN1C(=O)[C@H](CSCC(N)=O)NC(=O)[C@@H](N)[C@@H](C)O)C(C)C)C(=O)N[C@@H](Cc1ccc(O)cc1)C(=O)NCC(=O)N[C@@H](Cc1ccc(O)cc1)C(=O)N[C@@H](CCC(=O)O)C(=O)N[C@@H](CSCC(N)=O)C(=O)NCC(=O)N[C@@H](CCCNC(=N)N)C(=O)N[C@@H](Cc1c[nH]c2ccccc12)C(=O)NCC(=O)N[C@@H](CSCC(N)=O)C(=O)NCC(=O)N[C@@H](Cc1c[nH]cn1)C(=O)N[C@@H](Cc1ccccc1)C(=O)N[C@@H](CC(C)C)C(=O)N[C@@H](CC(N)=O)C(=O)N[C@@H](CO)C(=O)NCC(=O)N1CCC[C@H]1C(=O)N[C@@H](CC(N)=O)C(=O)N[C@H](C(=O)N[C@@H](CO)C(=O)N1CCC[C@H]1C(=O)N[C@@H](Cc1ccc(O)cc1)C(=O)N[C@H](C(=O)N[C@@H](CO)C(=O)N[C@H](C(=O)O)[C@@H](C)O)C(C)C)[C@@H](C)CC` [K92 chemFE reduced and capped] (H-TC(Cam)PEGWSEC(Cam)GVAIYGYEC(Cam)GRWGC(Cam)GHFLNSGPNISPYVST-OH; N-terminus assumed) here?
**A.** 2000 nM

**Q.** And the Kd (human C5; [3])?
**A.** 2350 nM

**Q.** What about the koff (human C5; [4]) of the same molecule?
**A.** 0.000172 s⁻¹

**Q.** And the kon (human C5; [4])?
**A.** 72.9 M⁻¹ s⁻¹

**Q.** How did the “fold change in KD relative to parent” value (human C5) turn out when `CC[C@H](C)[C@H](NC(=O)[C@H](CC(N)=O)NC(=O)[C@@H]1CCCN1C(=O)CNC(=O)[C@H](CO)NC(=O)[C@H](CC(N)=O)NC(=O)[C@H](CC(C)C)NC(=O)[C@H](Cc1ccccc1)NC(=O)[C@H](Cc1c[nH]cn1)NC(=O)CNC(=O)[C@@H]1CSSC[C@@H]2NC(=O)[C@H](CCC(=O)O)NC(=O)[C@H](CO)NC(=O)[C@H](Cc3c[nH]c4ccccc34)NC(=O)CNC(=O)[C@H](CCC(=O)O)NC(=O)[C@@H]3CCCN3C(=O)[C@@H](NC(=O)[C@@H](N)[C@@H](C)O)CSSC[C@H](NC(=O)[C@H](CCC(=O)O)NC(=O)[C@H](Cc3ccc(O)cc3)NC(=O)CNC(=O)[C@H](Cc3ccc(O)cc3)NC(=O)[C@H]([C@@H](C)CC)NC(=O)[C@@H](Cc3c[nH]c4ccccc34)NC(=O)[C@H](C(C)C)NC(=O)CNC2=O)C(=O)NCC(=O)N[C@@H](CCCNC(=N)N)C(=O)N[C@@H](Cc2c[nH]c3ccccc23)C(=O)NCC(=O)N1)C(=O)N[C@@H](CO)C(=O)N1CCC[C@H]1C(=O)N[C@@H](Cc1ccc(O)cc1)C(=O)N[C@H](C(=O)N[C@@H](CO)C(=O)N[C@H](C(=O)O)[C@@H](C)O)C(C)C` [K92chemFE A12d-W] (H-TCPEGWSECGV[dW]IYGYECGRWGCGHFLNSGPNISPYVST-OH; disulfide 2-18, 9-23; N-terminus and C-terminus assumed) was run?
**A.** 165.6
